Common to all, as to experiment: relative viability (nuclei count vs DMSO), 5 days (fraction); higher = more cells survive
Compound in the test “Carfilzomib + Decitabine”: CC(C)C[C@H](NC(=O)[C@H](CCc1ccccc1)NC(=O)CN1CCOCC1)C(=O)N[C@@H](Cc1ccccc1)C(=O)N[C@@H](CC(C)C)C(=O)[C@@]1(C)CO1 [Carfilzomib] + Nc1ncn([C@H]2C[C@H](O)[C@@H](CO)O2)c(=O)n1 [Decitabine] (partner 2 µM)
The essentials: (§1)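 Nuclei were stained with Hoechst during a one-step fixation (final 0.05% Triton X-100, 1% formaldehyde, 1 ug/ml Hoechst) carried out 5 days after dosing, then counted on 4× images. The cells, lung cancer lines in 1536-well plates, had been dosed by pin tool the day after seeding with one drug alone or a fixed anchor-drug dose plus five library-drug doses (not always all listed) in √10 steps. Relative viability is the nuclei count in treated wells divided by that in vehicle wells, and each value is the median of duplicate plates.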

Compound in the test “Carfilzomib + Vorinostat”: CC(C)C[C@H](NC(=O)[C@H](CCc1ccccc1)NC(=O)CN1CCOCC1)C(=O)N[C@@H](Cc1ccccc1)C(=O)N[C@@H](CC(C)C)C(=O)[C@@]1(C)CO1 [Carfilzomib] + O=C(CCCCCCC(=O)Nc1ccccc1)NO [Vorinostat] (partner 1 µM)
The essentials: as §1

Compound in the test “Crizotinib + Dasatinib”: C[C@@H](Oc1cc(-c2cnn(C3CCNCC3)c2)cnc1N)c1c(Cl)ccc(F)c1Cl [Crizotinib] + Cc1nc(Nc2ncc(C(=O)Nc3c(C)cccc3Cl)s2)cc(N2CCN(CCO)CC2)n1 [Dasatinib] (partner 0.075 µM)
The essentials:
as §1

Compound in the test “Olaparib + Navitoclax”: O=C(c1cc(Cc2n[nH]c(=O)c3ccccc23)ccc1F)N1CCN(C(=O)C2CC2)CC1 [Olaparib] + CC1(C)CCC(c2ccc(Cl)cc2)=C(CN2CCN(c3ccc(C(=O)NS(=O)(=O)c4ccc(N[C@H](CCN5CCOCC5)CSc5ccccc5)c(S(=O)(=O)C(F)(F)F)c4)cc3)CC2)C1 [Navitoclax] (partner 0.5 µM)
The essentials:
as §1

On to EPLC-272H, for which the relative viability was 0.353 with Carfilzomib + Decitabine (first compound 0.001 µM); 0.391 with Carfilzomib + Decitabine (first compound 0.003162 µM); 0.379 with Carfilzomib + Decitabine (first compound 0.01 µM); 0.174 with Carfilzomib + Decitabine (first compound 0.03162 µM); 0.0719 with Carfilzomib + Decitabine (first compound 0.1 µM); 0.518 with Carfilzomib + Vorinostat (first compound 0.001 µM). In addition, the relative viability in the test with Carfilzomib + Vorinostat (first compound 0.003162 µM) amounted to 0.417; with Carfilzomib + Vorinostat (first compound 0.01 µM) it was 0.108; in the test with Carfilzomib + Vorinostat (first compound 0.03162 µM), 0.055; with Carfilzomib + Vorinostat (first compound 0.1 µM), 0.0448; with Crizotinib + Dasatinib (first compound 0.01 µM), 0.426; with Crizotinib + Dasatinib (first compound 0.03162 µM), 0.382. For the same cell line, the relative viability with Crizotinib + Dasatinib (first compound 0.1 µM) is 0.445; with Crizotinib + Dasatinib (first compound 0.3162 µM), 0.366; with Crizotinib + Dasatinib (first compound 1 µM) it was 0.401; with Olaparib + Navitoclax (first compound 0.08 µM), 1.28; in the test with Olaparib + Navitoclax (first compound 0.253 µM), 1.1; with Olaparib + Navitoclax (first compound 2.53 µM), 1.16. Besides, the relative viability with Olaparib + Navitoclax (first compound 8 µM) turned out to be 0.995.

As to NCI-H23, the relative viability turned out to be 0.33 with Carfilzomib + Decitabine (first compound 0.001 µM); 0.336 with Carfilzomib + Decitabine (first compound 0.003162 µM); 0.307 with Carfilzomib + Decitabine (first compound 0.01 µM); 0.24 with Carfilzomib + Decitabine (first compound 0.03162 µM); 0.164 with Carfilzomib + Decitabine (first compound 0.1 µM); 0.506 with Carfilzomib + Vorinostat (first compound 0.001 µM). Further, the relative viability is 0.656 with Carfilzomib + Vorinostat (first compound 0.003162 µM); 0.195 in the test with Carfilzomib + Vorinostat (first compound 0.01 µM); 0.118 with Carfilzomib + Vorinostat (first compound 0.03162 µM); 0.0962 with Carfilzomib + Vorinostat (first compound 0.1 µM); 0.763 with Crizotinib + Dasatinib (first compound 0.01 µM); 0.83 with Crizotinib + Dasatinib (first compound 0.03162 µM). Further, the relative viability in the test with Crizotinib + Dasatinib (first compound 0.1 µM) turned out to be 0.645; in the test with Crizotinib + Dasatinib (first compound 1 µM) it was 0.742; in the test with Olaparib + Navitoclax (first compound 0.08 µM), 0.953; in the test with Olaparib + Navitoclax (first compound 0.253 µM) it was 0.684; with Olaparib + Navitoclax (first compound 2.53 µM), 0.603; with Olaparib + Navitoclax (first compound 8 µM), 0.387.

For the cell line NCI-H1563, the relative viability with Crizotinib + Dasatinib (first compound 0.01 µM) was determined as 0.462; with Crizotinib + Dasatinib (first compound 0.03162 µM) it was 0.443; with Crizotinib + Dasatinib (first compound 0.1 µM), 0.453; with Crizotinib + Dasatinib (first compound 0.3162 µM) it was 0.444; with Crizotinib + Dasatinib (first compound 1 µM), 0.461.

Consider H3255, for which the relative viability was 0.645 in the test with Carfilzomib + Decitabine (first compound 0.001 µM); 0.704 with Carfilzomib + Decitabine (first compound 0.003162 µM); 0.684 with Carfilzomib + Decitabine (first compound 0.01 µM); 0.185 with Carfilzomib + Decitabine (first compound 0.1 µM); 0.546 with Carfilzomib + Vorinostat (first compound 0.001 µM); 0.954 with Carfilzomib + Vorinostat (first compound 0.003162 µM). In addition, the relative viability in the test with Carfilzomib + Vorinostat (first compound 0.01 µM) was 0.929; with Carfilzomib + Vorinostat (first compound 0.1 µM) it was 0.811; with Crizotinib + Dasatinib (first compound 0.01 µM), 0.381; with Crizotinib + Dasatinib (first compound 0.03162 µM) it was 0.462; with Crizotinib + Dasatinib (first compound 0.1 µM), 0.422; with Crizotinib + Dasatinib (first compound 0.3162 µM), 0.393. For the same cell line, the relative viability came to 0.258 with Crizotinib + Dasatinib (first compound 1 µM); 0.53 with Olaparib + Navitoclax (first compound 0.08 µM); 0.426 with Olaparib + Navitoclax (first compound 0.253 µM); 0.655 with Olaparib + Navitoclax (first compound 2.53 µM); 0.437 with Olaparib + Navitoclax (first compound 8 µM).

As to NCI-H1355, the relative viability was 0.379 with Carfilzomib + Decitabine (first compound 0.001 µM); 0.402 with Carfilzomib + Decitabine (first compound 0.003162 µM); 0.353 with Carfilzomib + Decitabine (first compound 0.01 µM); 0.377 in the test with Carfilzomib + Decitabine (first compound 0.03162 µM); 0.157 with Carfilzomib + Decitabine (first compound 0.1 µM); 0.533 in the test with Carfilzomib + Vorinostat (first compound 0.001 µM). Also, the relative viability in the test with Carfilzomib + Vorinostat (first compound 0.003162 µM) was found to be 0.703; with Carfilzomib + Vorinostat (first compound 0.01 µM), 0.664; with Carfilzomib + Vorinostat (first compound 0.03162 µM), 0.569; with Carfilzomib + Vorinostat (first compound 0.1 µM), 0.142; with Crizotinib + Dasatinib (first compound 0.01 µM) it was 0.736; with Crizotinib + Dasatinib (first compound 0.03162 µM), 0.823. For the same cell line, the relative viability with Crizotinib + Dasatinib (first compound 0.1 µM) is 0.733; with Crizotinib + Dasatinib (first compound 0.3162 µM), 0.598; in the test with Crizotinib + Dasatinib (first compound 1 µM) it was 0.65; with Olaparib + Navitoclax (first compound 0.08 µM), 0.959; in the test with Olaparib + Navitoclax (first compound 0.253 µM), 0.887; with Olaparib + Navitoclax (first compound 2.53 µM), 0.949. The relative viability in the test with Olaparib + Navitoclax (first compound 8 µM) came out at 0.881.

Source of the values: the supplement of paper PMC10307832.
